Data: PubChem BioAssay (NCI)
Several values for one entry are separate records, joined by “and”; a condition that tells them apart may be missing. Equal values may be shown once.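 How tested: cells in 96-well plates exposed to compound for 48 hours at five concentrations. At the GI50, growth is halved. TGI denotes the concentration required for complete inhibition of growth.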

Assays:
Assay in all cases: NCI tumour cell line growth inhibition, 48 h
HOP-18 NSCLC = system: HOP-18 NSCLC
DMS 273 small cell lung = system: DMS 273 small cell lung
XF 498 CNS = system: XF 498 CNS
RXF-631 renal = system: RXF-631 renal
SNB-78 CNS = system: SNB-78 CNS
LXFL 529 NSCLC = system: LXFL 529 NSCLC
P388/ADR leukemia = system: P388/ADR leukemia
M19-MEL melanoma = system: M19-MEL melanoma
P388 leukemia = system: P388 leukemia
KM20L2 colon = system: KM20L2 colon
SN12K1 renal = system: SN12K1 renal

C=C=CC(NC(=O)c1ccccc1)(C(=O)O)C(F)(F)F (stereo not drawn)
TGI (HOP-18 NSCLC): > 100 µM | TGI (DMS 273 small cell lung): > 100 µM | TGI (XF 498 CNS): > 100 µM | TGI (RXF-631 renal): > 100 µM | TGI (SNB-78 CNS): > 100 µM | TGI (LXFL 529 NSCLC): > 100 µM

O=C(O)/C=C/c1c[nH]c(=O)[nH]c1=O
TGI (HOP-18 NSCLC): > 500 µM | TGI (DMS 273 small cell lung): > 500 µM | GI50 (XF 498 CNS): > 500 µM and 151 µM | TGI (XF 498 CNS): > 500 µM | TGI (SNB-78 CNS): > 500 µM | TGI (P388/ADR leukemia): > 500 µM | TGI (M19-MEL melanoma): > 500 µM | TGI (P388 leukemia): > 500 µM | TGI (KM20L2 colon): > 500 µM | TGI (SN12K1 renal): > 500 µM

CC12CCC(CC1)C(C)(C)O2
GI50 (HOP-18 NSCLC): 16.7 µM | TGI (HOP-18 NSCLC): 88.5 µM | TGI (DMS 273 small cell lung): 18.3 µM | TGI (XF 498 CNS): 5.51 µM | TGI (SNB-78 CNS): 261 µM | TGI (P388/ADR leukemia): 42.6 µM | TGI (M19-MEL melanoma): 64.5 µM | TGI (P388 leukemia): 55.7 µM | TGI (KM20L2 colon): 116 µM | TGI (SN12K1 renal): 110 µM

Clc1ccc(C[P+](c2ccccc2)(c2ccccc2)c2ccccc2)cc1Cl
TGI (HOP-18 NSCLC): 11 µM | TGI (DMS 273 small cell lung): 7.58 µM | TGI (XF 498 CNS): 3.24 µM | TGI (SNB-78 CNS): 42.8 µM | TGI (M19-MEL melanoma): 5.32 µM | TGI (KM20L2 colon): 13.7 µM

C=C1C(=O)OC2CC(C)C3C4OC4C(O)C3(C)C(O)C12 (stereo not drawn)
TGI (HOP-18 NSCLC): 72.4 µM | TGI (DMS 273 small cell lung): 67.2 µM | TGI (XF 498 CNS): 47.4 µM | TGI (SNB-78 CNS): 61.6 µM | TGI (P388/ADR leukemia): 49.3 µM | TGI (M19-MEL melanoma): 69.7 µM | TGI (P388 leukemia): 43.7 µM | TGI (KM20L2 colon): 42.8 µM | TGI (SN12K1 renal): 70.8 µM

C/C(N=NS(=O)(=O)c1ccc([N+](=O)[O-])cc1)=C1\C=CC=CN1O
TGI (HOP-18 NSCLC): > 100 µM | TGI (DMS 273 small cell lung): > 100 µM | TGI (XF 498 CNS): > 100 µM | TGI (SNB-78 CNS): > 100 µM | TGI (LXFL 529 NSCLC): > 100 µM | TGI (M19-MEL melanoma): > 100 µM | TGI (KM20L2 colon): > 100 µM
